Our source for the IC50 values is paper PMC5768343, “A natural inhibitor of kidney-type glutaminase: a withanolide from Physalis pubescens with potent anti-tumor activity” (Oncotarget, 2017).

Where two headings read alike, the source gives them in different places.

In the experiment the test system is human pancreatic cancer cells (SW1990). In words: CCK8 cytotoxicity / proliferation assay, SW1990. The following applies: read-out: IC50 SW1990.

Description: The SW1990, HT1080, and A375-S2 human tumor cell lines were obtained from ATCC (Manassas, VA, USA). […] SW1990, HT1080, and LO2 cells were cultured in DMEM medium with 10% fetal bovine serum (FBS). All of these cells were cultured at 37°C in a humidified atmosphere with 5% CO2. To estimate cell viability, cells (5000/well) were separately seeded in 96-well plates for 24 h at 37°C in a 5% CO2 incubator. […] All the experiments were performed in triplicate, and the mean absorbance values were calculated. The IC50 values of the compounds were derived from the mean OD values of the triplicate tests versus the drug concentration curves.
Cell proliferation was assessed by incubating them with Cell Counting Kit-8 reagents (Dojindo, Shanghai, China) for 24 h, 48 h, 72 h, 96 h at 37°C and measuring the absorbance at 450 nm. The experiment was performed in triplicate.

For `O=C(Cc1ccccc1)Nc1nnc(CCSCCc2nnc(NC(=O)Cc3ccccc3)s2)s1` [BPTES, reference compound], for the setting “CCK8, 48 h”, the IC50 stood at 35.3 ± 0.67 µM.
For `O=C(Cc1cccc(OC(F)(F)F)c1)Nc1ccc(CCCCc2nnc(NC(=O)Cc3ccccn3)s2)nn1` [CB-839, reference compound], the IC50 (Homo sapiens, SW1990, 48 h) is 13.1 ± 0.57 µM.

What is called IC50 is the midpoint of a concentration-inhibition curve.
